Like-named read-outs stand apart in the source and are kept apart here.
Tests used:
hTRPC5 [1] = target: T1, hTRPC5 (Homo sapiens, UniProt Q9UL62); test: TRPC5 agonist activity assay (FLIPR calcium fluorescence); type: cell-based; settings: Table 2, agonist activity on TRPC5 channels
T1 construct: expressed in transfected cells; host or cells: HEK-293
T1 sequence (Q9UL62 1-973): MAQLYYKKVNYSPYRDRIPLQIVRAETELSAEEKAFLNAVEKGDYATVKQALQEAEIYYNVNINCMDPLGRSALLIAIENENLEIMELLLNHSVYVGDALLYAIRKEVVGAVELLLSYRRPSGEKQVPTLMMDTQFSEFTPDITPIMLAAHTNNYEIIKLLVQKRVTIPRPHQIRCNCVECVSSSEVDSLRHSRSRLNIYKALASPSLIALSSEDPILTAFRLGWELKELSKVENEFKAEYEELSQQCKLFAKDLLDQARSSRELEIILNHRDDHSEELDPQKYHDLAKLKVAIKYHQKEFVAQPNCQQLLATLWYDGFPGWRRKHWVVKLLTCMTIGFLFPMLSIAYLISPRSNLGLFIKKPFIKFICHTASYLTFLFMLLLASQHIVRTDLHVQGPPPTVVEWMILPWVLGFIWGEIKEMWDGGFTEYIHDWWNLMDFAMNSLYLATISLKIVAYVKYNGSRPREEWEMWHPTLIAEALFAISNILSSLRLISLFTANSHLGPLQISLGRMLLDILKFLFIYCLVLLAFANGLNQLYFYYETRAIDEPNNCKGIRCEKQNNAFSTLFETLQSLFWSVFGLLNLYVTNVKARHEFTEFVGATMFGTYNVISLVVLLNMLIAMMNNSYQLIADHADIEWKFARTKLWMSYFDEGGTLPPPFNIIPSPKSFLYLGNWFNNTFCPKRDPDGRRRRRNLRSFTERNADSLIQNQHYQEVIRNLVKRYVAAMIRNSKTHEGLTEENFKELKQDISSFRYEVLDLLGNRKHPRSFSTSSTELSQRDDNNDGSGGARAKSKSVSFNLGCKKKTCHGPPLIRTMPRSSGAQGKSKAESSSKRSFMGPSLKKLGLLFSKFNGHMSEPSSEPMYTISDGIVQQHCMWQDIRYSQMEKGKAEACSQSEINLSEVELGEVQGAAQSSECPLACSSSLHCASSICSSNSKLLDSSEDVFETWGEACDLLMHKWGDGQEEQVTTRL
Protocol: HEK-293 cells expressing hTRPC5 were seeded into PDL-coated black-walled 96-well plates, with 2×10^4 cells per well. After 8 hours of culture, the original culture medium was discarded, and 60 µL of 4 µM Fluo-4/AM dye was added immediately. The cells were incubated at 37 °C for 60 minutes, and then rinsed with calcium flow detection buffer 5 times. The cell plates were placed in FLIPR®TETRA (Molecular Devices, Sunnyvale, CA, USA) preheated at 30 °C, excited at a wavelength of 488 nm, and the fluorescence signals were continuously recorded in the range of 515-535 nm with a sampling frequency of 1 s. After recording for 360 seconds, solvent control and test compounds were added, and the fluorescence signal was collected for another 600 seconds. The fluorescence signal of the trajectory diagram is represented by F/F0, wherein F is the fluorescence signal at different time points, and F0 is the basic fluorescence signal, that is, the average value of the fluorescence signal at the first 10 time points. The dose-effect diagram first took F/F0 =1 as the baseline. The area under the curve of the change in fluorescence intensity after adding test compound was calculated. IC50 value was calculated using log[agonist] vs. response - Variable slope, taking into account the area under the curve and the log value of the concentration of the compound.

hTRPC5 [2] = target: T1, hTRPC5; test: TRPC5 inhibitory activity assay (FLIPR calcium fluorescence, Englerin A stimulation); type: cell-based
Protocol: HEK-293 cells expressing hTRPC3, hTRPC4 or hTRPC5 were seeded into black-bottomed 96-well plates coated with poly-lysine (PDL), with 2×10^4 cells per well. After 8 h of culture, the original culture medium was discarded, and 60 µL of Fluo-4/AM dye with a final concentration of 4 µM was added. The plates were incubated at 37 °C for 60 min, and then rinsed five times with calcium flow detection buffer. […] Then, the agonist Englerin A (EA) (MedChemExpress, Shanghai, China, final concentration of 0.3nM) was added, and the fluorescence signal was collected for 600 seconds. The fluorescence signal of the trajectory diagram is represented by F/F0, wherein F is the fluorescence signal at different time points, and F0 is the basic fluorescence signal, that is, the average value of the fluorescence signal at the first 10 time points. […] The area under the curve of the change in fluorescence intensity after adding EA was calculated. IC50 value was calculated using log[Inhibitor] vs. response - Variable slope, taking into account the area under the curve and the log value of the concentration of the compound.

hERG channel = target: T2, hERG channel (Homo sapiens, UniProt Q12809); test: hERG channel inhibition assay (Qpatch whole-cell recording, CHO cells expressing hERG); type: cell-based; settings: Table 3; highest test concentration 40 µM; read-out: inhibitory activity IC50 hERG
T2 construct: expressed in transfected cells; host or cells: CHO
Protocol: (§1) CHO cells expressing hERG protein were cultured in 175cm^2 culture flasks. When the cell density grew to 60-80%, the culture medium was removed, and the cells were washed with 7mL PBS, and then 3mL Detachin was added for digestion. After digestion was complete, 7mL culture medium was added for neutralization, and then centrifuged, the supernatant was aspirated, and 5mL culture medium was added for resuspending to ensure that the cell density was 2-5×10^6/mL.
(§2) The single-cell high-impedance sealing and whole-cell pattern formation process were all automatically completed by the Qpatch instrument. After obtaining the whole-cell recording mode, the cell was clamped at -80 mV. […] This voltage stimulus was applied every 15 seconds. After recording for 2 minutes, the extracellular solution was recorded for 2 minutes, and then the drug administration process began. The compound concentration started from the lowest test concentration, and each test concentration was given for 2 minutes. After all concentrations were given continuously, the positive control compound 10 µM Cisapride was given. At least 3 cells (n≥3) were tested for each concentration.
(§3) The stock solution of compound was diluted with extracellular solution, 5 µL of 20 mM compound stock solution was added to 2495 µL of extracellular solution, 500 times diluted to 40 µM, and then 3 times serial dilution was performed in the extracellular solution containing 0.2% DMSO to obtain the final concentration to be tested.
(§4) (5) Data analysis: The experimental data were analyzed by XLFit software.

[3] = target: T3, hERG channel (relative to TRPC5) (Homo sapiens, UniProt Q12809); test: as above; type: cell-based; settings: human, CHO cells expressing hERG; ratio of IC50 values
T3 construct: expressed in transfected cells; host or cells: CHO
Protocol: as §1, §2, §3, §4

[4] = Preliminary pharmacokinetic evaluation, plasma drug concentration after oral administration to mice; type: in vivo, ICR mice; settings: oral 10 mg/kg, Mean ± SD, N = 3
Protocol: The test compound was prepared according to the following solvent: an aqueous solution of DMSO/Tween 80/0.5% (m/v) CMC-Na at a ratio of 2:2:96 (v/v/v), with a drug concentration of 1 mg/mL. Then, the test compound was gavaged to mice at a dosage of 10 mL/kg, with a dose of 10 mg/kg. Each compound was administered to 3 mice. At 1h and 4h after administration, about 50 µL of blood was collected from the orbital venous plexus of the mouse and placed in a centrifuge tube containing EDTA-K2 anticoagulant.

mice [5] = test: Marble burial test (antianxiety); type: in vivo; settings: before versus after administration (Figure 3)
Protocol: (§5) The drug to be tested was dissolved in DMSO: Tween 80: distilled water at a ratio of 2:2:96 (v/v/v), and then administered to mice by gavage at a volume of 10 mL/kg. […] The blank control group was only given 10 mL/kg of the above solvent.
The mouse marble burial test is a behavioral assay used for the screening of antianxiety drugs. It exploits the natural digging behavior of mice in environments such as burrows or escape tunnels and is sensitive to small changes in behavior caused by genetic manipulation, disease, or drug treatment.
A 5cm thick sawdust litter was laid in a 33 cm×24 cm×28 cm carton, and 4×5 black marbles (4 cm apart) with a total of 20 black marbles of 14mm in diameter were neatly placed on the litter. The mouse was put into the carton facing the corner for 30 minutes. After 30 minutes, the mouse was carefully taken out and the number of marbles buried by the mouse was counted. If more than 2/3 of the marble was buried, it was considered a whole marble. First, a blank experiment was conducted. Before the experiment, the mouse was taken to the experimental environment to adapt. After 1 hour, the experiment began. After the experiment, the mouse was returned to the cage and the number of marbles buried by the mouse was counted. On the second day, the mouse was taken to the experimental environment to adapt for 1 hour before the drug was administered. After the drug administration, the marble burying experiment was conducted for […]. After the experiment, the mouse was carefully taken out and returned to the cage to prevent the mouse from escaping violently and affecting the experimental results. After counting, the black marbles were taken out and wiped with alcohol, and the litter was turned over again to remove the smell of the previous mouse to prevent it from affecting the experiment of the next mouse. The marbles were neatly placed for the experiment of the next mouse.

mice [6] = test: Tail suspension test (antidepression); type: in vivo; settings: before versus after administration (Figure 4)
Protocol: as §5
The mouse tail suspension test (TST) is a widely used experimental method to evaluate the effectiveness of antidepressants and other psychotropic drugs. The principle of the test is to suspend a mouse by its tail and observe its behavior. The mouse will initially struggle to escape, but when it realizes that escape is impossible, it will eventually stop struggling and enter a state of immobility that indicates despair. This immobility behavior is used to measure depression-like states, and the severity of the condition is assessed by recording the duration of immobility.
The same mouse was subjected to the tail suspension test immediately after the marble burying test. A tail suspension test box was built using a black frosted acrylic board, 55 cm high, 15 cm long, and 11.5 cm wide. The three sides and top of the box were frosted blackboards, and one side was used for video recording. The mouse tail was wrapped with yellow tape 2 cm away from the tip of the tail, and the mouse was hung upside down in the middle of the top acrylic board. The tip of the mouse tail was about 3 cm away from the acrylic board, and the body was suspended and could not touch the surrounding board wall. The test time for each mouse lasted for 6 minutes, and the immobility time of the mouse during this time was counted. After the experiment, the mouse was returned to the cage, and the inside of the box and the table were wiped with alcohol to remove the smell of the previous mouse to prevent affecting the next mouse experiment. The criteria for immobility in the tail suspension test: stop struggling, no flexion or twisting of the body, no swinging of the hind limbs, and slight swinging of the forelimbs and head were also counted as immobility time.

[7] = Liver microsome stability test, mouse; type: in vitro ADME; settings: Mouse liver microsomes
From the text: Calculation of Intrinsic Clearance: Clint = (1000 × slope)/(P); [formula]

T3 sequence (Q12809 whole entry): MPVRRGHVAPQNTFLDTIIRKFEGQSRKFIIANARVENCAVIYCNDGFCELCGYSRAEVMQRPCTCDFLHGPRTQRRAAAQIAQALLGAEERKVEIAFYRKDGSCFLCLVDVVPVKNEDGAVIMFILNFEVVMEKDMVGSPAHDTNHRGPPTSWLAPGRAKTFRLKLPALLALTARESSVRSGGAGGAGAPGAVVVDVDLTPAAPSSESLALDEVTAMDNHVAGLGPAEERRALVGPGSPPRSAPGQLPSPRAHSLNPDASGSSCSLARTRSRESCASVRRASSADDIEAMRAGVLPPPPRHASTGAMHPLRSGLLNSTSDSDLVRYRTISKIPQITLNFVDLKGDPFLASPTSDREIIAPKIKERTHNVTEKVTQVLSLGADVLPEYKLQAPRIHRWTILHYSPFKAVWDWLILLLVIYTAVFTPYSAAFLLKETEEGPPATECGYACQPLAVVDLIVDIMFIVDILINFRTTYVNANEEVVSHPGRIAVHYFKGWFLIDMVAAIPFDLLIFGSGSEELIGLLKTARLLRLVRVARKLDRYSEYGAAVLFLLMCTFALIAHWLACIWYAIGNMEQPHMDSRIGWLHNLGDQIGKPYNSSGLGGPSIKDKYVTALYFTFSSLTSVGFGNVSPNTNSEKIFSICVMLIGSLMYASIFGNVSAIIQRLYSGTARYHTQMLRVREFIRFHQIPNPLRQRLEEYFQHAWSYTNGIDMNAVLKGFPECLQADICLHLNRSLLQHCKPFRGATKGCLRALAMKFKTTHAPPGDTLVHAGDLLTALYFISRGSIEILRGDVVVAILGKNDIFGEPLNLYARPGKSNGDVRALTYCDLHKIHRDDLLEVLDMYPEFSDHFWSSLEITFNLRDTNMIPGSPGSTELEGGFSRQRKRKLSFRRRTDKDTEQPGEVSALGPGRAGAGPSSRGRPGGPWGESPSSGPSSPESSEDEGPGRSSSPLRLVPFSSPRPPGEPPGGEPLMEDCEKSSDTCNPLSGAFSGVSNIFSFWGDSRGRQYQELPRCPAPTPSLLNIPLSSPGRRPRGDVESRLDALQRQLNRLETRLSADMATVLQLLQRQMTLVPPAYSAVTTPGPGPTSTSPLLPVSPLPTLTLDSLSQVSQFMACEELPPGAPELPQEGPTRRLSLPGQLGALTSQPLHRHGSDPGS
T2 sequence (Q12809 whole entry): as above

Q: For `Cn1c(=O)n(CCCO)c(=O)c2c1nc(C1(F)CCC(N3CCCC3)CC1)n2Cc1ccc(Cl)cc1` (stereo not shown) [Example E55, 7-(4-chlorobenzyl)-8-(1-fluoro-4-(pyrrolidin-1-yl)cyclohexyl)-1-(3-hydroxypropyl)-3-methyl-3,7-dihydro-1H-purine-2,6-dione], which EC50 (hTRPC5 [1]) is on record?
A: 700 nM

Q: What does the source list for `Cn1c(=O)n(CCCO)c(=O)c2c1nc(C1(F)CCC(F)(F)CC1)n2Cc1ccc(C(F)(F)F)cc1` [Example E60, 1-(3-hydroxypropyl)-3-methyl-8-(1,4,4-trifluorocyclohexyl)-7-(4-(trifluoromethyl)benzyl)-3,7-dihydro-1H-purine-2,6-dione]?
A: IC50 (hTRPC5 [2]; Table 1, TRPC5 channels, HEK-293 cells expressing hTRPC5, read-out: FLIPR IC50): 6.87 nM; IC50 (hTRPC5 [2]; Table 3, read-out: inhibitory activity IC50 TRPC5): 6.9 nM; IC50 (hERG channel): 13300 nM; selectivity ratio at 2 min [3]: 1940; concentration at 1 h ([4]; male, ICR, mouse, 1h): 1310 ± 45 ng/mL; concentration at 4 h ([4]; male, ICR, mouse, 4h): 1180 ± 163 ng/mL

Q: For `CNCCC(Oc1ccc(C(F)(F)F)cc1)c1ccccc1` (stereo not shown) [Fluoxetine, reference compound], which “number of marbles buried by mice” value (mice [5]; oral 10 mg/kg) is on record?
A: significantly reduced

Q: And the “immobility time of mice” value (mice [6]; oral 10 mg/kg)?
A: significantly reduced

Q: Which “Stability Evaluation” value [7] does the source give for `Cn1c(=O)n(CCCO)c(=O)c2c1nc(Oc1cccc(Cl)c1)n2Cc1ccc(Cl)cc1` [HC-070, reference compound] here?
A: Worse (MF%<30%, worse metabolic stability)

Q: What about the MF % ([7]; metabolic bioavailability) of the same molecule?
A: 19.8%

Q: And the half-life ([7]; pH 7.4, 1µM compound, read-out: Half-life T1/2)?
A: 11.7 min

Q: What about the “drug concentration 1h” value ([4]; 1h) of the same molecule?
A: 802 ± 164 ng/mL

Q: And the “drug concentration 4h” value ([4]; 4h)?
A: 398 ± 57 ng/mL

Q: And the “number of marbles buried by mice” value (mice [5]; oral 1 mg/kg)?
A: significantly reduced

Q: What about the “immobility time of mice” value (mice [6]; oral 1 mg/kg) of the same molecule?
A: significantly reduced

Reference: patent publication EP4663640A1 (Shanghai Institute of Materia Medica, Chinese Academy of …, priority 2023, dated 2024)
